# Results reported in patent US20240246942A1, “KINASE INHIBITORS FOR THE TREATMENT OF NEURODEGENERATIVE DISEASES” (priority 2020, published 2024).
# Experiments:
# Assay in all cases: biochemical
# [1] = target: T1, panel of 374 wild-type kinases (Homo sapiens, UniProt P16234); conditions: read-out: % Enzyme Activity (relative to DMSO controls), kinase PDGFRa
# T1 construct: purchased Reaction Biology Corporation
# [2] = target: T2, panel of 374 wild-type kinases (Homo sapiens, UniProt P51813); conditions: read-out: % Enzyme Activity (relative to DMSO controls), BMX/ETK
# T2 construct: purchased Reaction Biology Corporation
# T2 sequence (P51813 1-675): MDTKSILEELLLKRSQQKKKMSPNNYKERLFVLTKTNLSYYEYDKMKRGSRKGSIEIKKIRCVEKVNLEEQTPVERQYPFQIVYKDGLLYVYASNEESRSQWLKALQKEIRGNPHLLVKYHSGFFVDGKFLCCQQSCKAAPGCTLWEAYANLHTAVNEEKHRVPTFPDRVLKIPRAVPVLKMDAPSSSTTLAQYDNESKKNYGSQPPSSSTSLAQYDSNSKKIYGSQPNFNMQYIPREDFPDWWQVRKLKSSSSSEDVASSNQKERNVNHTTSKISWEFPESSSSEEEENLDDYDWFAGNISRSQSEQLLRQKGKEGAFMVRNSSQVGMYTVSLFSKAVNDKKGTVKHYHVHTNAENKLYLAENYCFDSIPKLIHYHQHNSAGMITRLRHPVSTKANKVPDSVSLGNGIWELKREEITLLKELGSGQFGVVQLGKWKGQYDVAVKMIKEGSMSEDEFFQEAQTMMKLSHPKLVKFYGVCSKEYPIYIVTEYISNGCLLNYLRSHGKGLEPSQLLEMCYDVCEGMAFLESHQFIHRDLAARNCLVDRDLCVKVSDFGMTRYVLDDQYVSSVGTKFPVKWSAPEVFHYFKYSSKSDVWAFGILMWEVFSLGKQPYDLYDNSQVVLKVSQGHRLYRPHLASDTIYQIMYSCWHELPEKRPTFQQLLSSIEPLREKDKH
# [3] = target: T3, panel of 374 wild-type kinases (Homo sapiens, UniProt Q02750); conditions: read-out: % Enzyme Activity (relative to DMSO controls), MEK1
# T3 construct: purchased Reaction Biology Corporation
# T3 sequence (Q02750 whole entry): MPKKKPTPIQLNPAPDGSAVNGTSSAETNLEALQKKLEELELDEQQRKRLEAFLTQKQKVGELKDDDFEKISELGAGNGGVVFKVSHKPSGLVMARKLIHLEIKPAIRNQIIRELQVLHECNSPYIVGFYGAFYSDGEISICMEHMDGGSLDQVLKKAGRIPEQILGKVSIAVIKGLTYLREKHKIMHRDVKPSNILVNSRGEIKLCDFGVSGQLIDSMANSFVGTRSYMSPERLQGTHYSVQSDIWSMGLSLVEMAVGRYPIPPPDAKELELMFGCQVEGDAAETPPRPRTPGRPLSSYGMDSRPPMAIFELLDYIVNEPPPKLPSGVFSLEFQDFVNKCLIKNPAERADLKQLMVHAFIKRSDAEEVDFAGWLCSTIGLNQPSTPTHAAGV
# [4] = target: T4, panel of 374 wild-type kinases (Homo sapiens, UniProt Q7L7X3); conditions: read-out: % Enzyme Activity (relative to DMSO controls), kinase TAOK1
# T4 construct: purchased Reaction Biology Corporation
# T4 sequence (Q7L7X3 1-1001): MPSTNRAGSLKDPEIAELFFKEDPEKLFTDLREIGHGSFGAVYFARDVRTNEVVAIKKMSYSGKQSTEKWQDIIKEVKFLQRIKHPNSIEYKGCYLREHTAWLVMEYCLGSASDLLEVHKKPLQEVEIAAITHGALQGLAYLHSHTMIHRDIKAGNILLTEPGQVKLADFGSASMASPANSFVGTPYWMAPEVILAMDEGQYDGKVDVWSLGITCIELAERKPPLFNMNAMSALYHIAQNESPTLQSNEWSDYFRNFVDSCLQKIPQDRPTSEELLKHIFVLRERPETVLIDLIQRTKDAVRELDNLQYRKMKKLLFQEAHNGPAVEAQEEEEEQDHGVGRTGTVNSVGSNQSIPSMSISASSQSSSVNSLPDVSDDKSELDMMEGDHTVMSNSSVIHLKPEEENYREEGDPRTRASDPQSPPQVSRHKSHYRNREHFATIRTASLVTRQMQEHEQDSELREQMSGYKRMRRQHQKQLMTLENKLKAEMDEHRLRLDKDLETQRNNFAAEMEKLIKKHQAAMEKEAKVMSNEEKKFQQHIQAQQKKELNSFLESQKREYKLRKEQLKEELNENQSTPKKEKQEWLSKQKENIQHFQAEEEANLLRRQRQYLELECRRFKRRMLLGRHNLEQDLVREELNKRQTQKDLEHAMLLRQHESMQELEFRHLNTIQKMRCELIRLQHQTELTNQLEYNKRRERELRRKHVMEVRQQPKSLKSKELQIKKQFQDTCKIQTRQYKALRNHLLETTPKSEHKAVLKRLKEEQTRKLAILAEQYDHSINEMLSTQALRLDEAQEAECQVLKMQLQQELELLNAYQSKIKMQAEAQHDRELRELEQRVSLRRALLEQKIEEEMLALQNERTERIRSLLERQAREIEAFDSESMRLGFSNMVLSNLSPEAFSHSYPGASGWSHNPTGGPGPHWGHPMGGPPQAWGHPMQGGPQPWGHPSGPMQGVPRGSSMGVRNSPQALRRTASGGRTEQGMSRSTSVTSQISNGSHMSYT
# [5] = target: T5, panel of 374 wild-type kinases (Homo sapiens, UniProt Q9UHD2); conditions: read-out: % Enzyme Activity (relative to DMSO controls), kinase TBK1
# T5 construct: purchased Reaction Biology Corporation
# T5 sequence (Q9UHD2 1-729): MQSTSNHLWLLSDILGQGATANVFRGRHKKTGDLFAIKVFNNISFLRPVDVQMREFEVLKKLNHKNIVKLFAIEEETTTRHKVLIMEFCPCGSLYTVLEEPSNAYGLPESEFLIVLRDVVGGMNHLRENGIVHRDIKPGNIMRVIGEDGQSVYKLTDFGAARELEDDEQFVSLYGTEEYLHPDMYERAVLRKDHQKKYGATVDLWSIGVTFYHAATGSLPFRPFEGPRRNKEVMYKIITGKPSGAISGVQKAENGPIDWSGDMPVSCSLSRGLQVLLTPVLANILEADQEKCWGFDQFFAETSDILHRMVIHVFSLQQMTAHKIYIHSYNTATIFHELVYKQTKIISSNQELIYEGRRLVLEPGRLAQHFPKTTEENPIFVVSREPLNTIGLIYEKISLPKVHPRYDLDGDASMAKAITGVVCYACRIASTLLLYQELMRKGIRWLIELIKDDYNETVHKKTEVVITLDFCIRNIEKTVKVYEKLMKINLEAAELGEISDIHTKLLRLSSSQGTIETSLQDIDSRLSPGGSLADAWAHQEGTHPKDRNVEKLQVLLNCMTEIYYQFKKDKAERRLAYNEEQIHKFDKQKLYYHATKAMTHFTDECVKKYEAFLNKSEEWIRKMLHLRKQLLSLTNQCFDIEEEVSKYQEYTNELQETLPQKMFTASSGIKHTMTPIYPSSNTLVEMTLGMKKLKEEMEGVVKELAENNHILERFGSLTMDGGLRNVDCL
# [6] = target: T6, panel of 374 wild-type kinases (Homo sapiens, UniProt Q9Y4K4); conditions: read-out: % Enzyme Activity (relative to DMSO controls), KHS/MAP4K5
# T6 construct: purchased Reaction Biology Corporation
# T6 sequence (Q9Y4K4 whole entry): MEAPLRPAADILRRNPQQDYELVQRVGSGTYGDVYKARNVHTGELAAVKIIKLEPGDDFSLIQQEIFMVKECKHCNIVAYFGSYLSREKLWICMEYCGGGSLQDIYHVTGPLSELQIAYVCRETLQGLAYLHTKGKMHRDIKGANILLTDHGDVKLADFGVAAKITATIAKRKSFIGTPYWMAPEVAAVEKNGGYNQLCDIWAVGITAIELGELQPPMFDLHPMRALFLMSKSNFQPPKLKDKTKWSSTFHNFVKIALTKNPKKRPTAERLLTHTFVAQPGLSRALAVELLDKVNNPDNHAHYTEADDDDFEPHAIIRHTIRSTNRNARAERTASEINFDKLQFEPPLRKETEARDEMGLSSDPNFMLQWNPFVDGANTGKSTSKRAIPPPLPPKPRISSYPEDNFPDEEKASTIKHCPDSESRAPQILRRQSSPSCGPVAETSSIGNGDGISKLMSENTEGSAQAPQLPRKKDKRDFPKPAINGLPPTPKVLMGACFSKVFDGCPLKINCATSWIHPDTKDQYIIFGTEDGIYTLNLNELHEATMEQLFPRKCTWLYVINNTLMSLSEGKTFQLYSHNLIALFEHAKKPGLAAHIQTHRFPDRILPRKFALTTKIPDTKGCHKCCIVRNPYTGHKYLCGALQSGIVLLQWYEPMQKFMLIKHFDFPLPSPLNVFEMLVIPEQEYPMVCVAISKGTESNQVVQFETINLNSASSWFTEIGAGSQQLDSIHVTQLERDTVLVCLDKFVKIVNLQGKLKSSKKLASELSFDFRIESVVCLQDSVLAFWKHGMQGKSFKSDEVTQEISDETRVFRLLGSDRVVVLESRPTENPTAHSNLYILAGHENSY
# T1 sequence (P16234 24-1089): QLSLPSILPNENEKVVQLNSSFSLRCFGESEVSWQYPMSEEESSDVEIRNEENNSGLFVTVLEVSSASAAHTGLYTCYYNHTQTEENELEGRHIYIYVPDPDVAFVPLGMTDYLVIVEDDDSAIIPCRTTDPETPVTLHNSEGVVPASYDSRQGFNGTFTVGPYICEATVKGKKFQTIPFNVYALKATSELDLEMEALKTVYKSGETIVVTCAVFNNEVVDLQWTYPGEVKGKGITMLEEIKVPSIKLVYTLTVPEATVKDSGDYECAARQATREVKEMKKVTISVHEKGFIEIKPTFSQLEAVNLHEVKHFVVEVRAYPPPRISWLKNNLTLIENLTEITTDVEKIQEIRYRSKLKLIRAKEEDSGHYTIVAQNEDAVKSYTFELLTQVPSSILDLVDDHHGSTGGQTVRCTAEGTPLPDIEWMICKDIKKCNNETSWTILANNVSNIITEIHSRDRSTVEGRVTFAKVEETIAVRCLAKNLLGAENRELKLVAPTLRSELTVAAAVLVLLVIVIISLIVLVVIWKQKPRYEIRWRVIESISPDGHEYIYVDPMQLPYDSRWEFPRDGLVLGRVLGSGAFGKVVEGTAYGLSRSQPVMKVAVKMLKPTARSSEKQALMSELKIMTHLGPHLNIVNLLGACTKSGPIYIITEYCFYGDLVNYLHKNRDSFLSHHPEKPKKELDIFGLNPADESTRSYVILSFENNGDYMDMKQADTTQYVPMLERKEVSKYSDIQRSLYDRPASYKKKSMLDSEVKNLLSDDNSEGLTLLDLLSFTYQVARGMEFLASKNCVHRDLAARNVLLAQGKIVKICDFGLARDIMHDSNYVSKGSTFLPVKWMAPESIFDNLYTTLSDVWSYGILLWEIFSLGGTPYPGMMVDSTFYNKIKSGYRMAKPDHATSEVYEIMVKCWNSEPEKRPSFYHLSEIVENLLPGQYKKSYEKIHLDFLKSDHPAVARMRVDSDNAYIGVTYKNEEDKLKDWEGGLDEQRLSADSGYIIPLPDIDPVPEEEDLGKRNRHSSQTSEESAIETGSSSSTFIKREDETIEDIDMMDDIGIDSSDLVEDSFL
Compound,remaining activity at 5 µM [1],remaining activity at 5 µM [2],remaining activity at 5 µM [3],remaining activity at 5 µM [4],remaining activity at 5 µM [5],remaining activity at 5 µM [6],remaining activity at 10 µM ([1]; 10 uM),remaining activity at 10 µM ([2]; 10 uM),remaining activity at 10 µM ([3]; 10 uM),remaining activity at 10 µM ([4]; 10 uM),remaining activity at 10 µM ([5]; 10 uM),remaining activity at 10 µM ([6]; 10 uM)
"O=C(Nc1cnn(-c2csc(C(=O)NC3COC3)c2)c1)Nc1ccccc1Cl [Compound 17, 4-(4-(3-(2-chlorophenyl)ureido)-1H-pyrazol-1-yl)-N-(oxetan-3-yl)thiophene-2-carboxamide]",95.2%,106%,104%,122%,102%,99.1%,–,–,–,–,–,–
"O=C(Nc1cnn(-c2csc(C(=O)NC3COC3)c2)c1)Nc1c(F)cccc1Cl [Compound 25, 4-(4-(3-(2-chloro-6-fluorophenyl)ureido)-1H-pyrazol-1-yl)-N-(oxetan-3-yl)thiophene-2-carboxamide]",107%,96.8%,107%,90.6%,98.8%,103%,–,–,–,–,–,–
"Cc1sc(C(=O)NC2COC2)cc1-n1cc(NC(=O)Nc2c(F)cccc2Cl)cn1 [Compound 27, 4-(4-(3-(2-chloro-6-fluorophenyl)ureido)-1H-pyrazol-1-yl)-5-methyl-N-(oxetan-3-yl)thiophene-2-carboxamide]",–,–,–,–,–,–,114%,92.9%,95.5%,110%,97.8%,98.4%
